“And” between values parts separate entries of the source, which are not always exact repeats. Equal entries are not always repeated. Where a SMILES comes first, the peptide text is derived from it. [ ]: non-standard residue; d: D form. Hyp = O=C(O)[C@@H]1C[C@@H](O)CN1
Test system: IL-2
Experiment: Example 8 main study Luminex, LPS hPBMCs: IL-2
Assay type: cell-based, human
Protocol: Human PBMCs were pretreated with YY-101, YDE-011, YDE-043 or reference compound; Xiidra® at various concentration (ranging from […] to 500 nM) for 2 h before stimulation. An equal volume of 0.5% DMSO was used as a vehicle control. Then, the cells were treated with LPS at 5 ug/ml, which was selected based on the pilot study. The supernatants from treated cells were harvested at 24 h and placed in a 96 well for Luminex cytokine & chemokine profiling using a Luminex 200 multiplex assay (Luminex; R&D system, USA).
The main study arm with triplicate wells per group in a 24-well plate: • 1. Blank • 2. PBMC: 0.5% DMSO • 3. PBMC+LPS (5 ug/ml) • 4. PBMC+YY-101 500 nM • 5. PBMC+YY-101 50 nM • 6. PBMC+YY-101 5 nM • 7. PBMC+YY-101 0.5 nM • 8. PBMC+LPS (5 ug/ml)+Xiidra® 500 nM • 9. PBMC+LPS (5 ug/ml)+Xiidra® 50 nM • 10. PBMC+LPS (5 ug/ml)+Xiidra® 5 nM • 11. PBMC+LPS (5 ug/ml)+Xiidra® 0.5 nM • 12. PBMC+LPS (5 ug/ml)+Xiidra® 0.05 nM • 13. PBMC+LPS (5 ug/ml)+Xiidra® 0.005 nM • 14. PBMC+LPS (5 ug/ml)+YY-101 500 nM • 15. PBMC+LPS (5 ug/ml)+YY-101 50 nM • 16. PBMC+LPS (5 ug/ml)+YY-101 5 nM • 17. PBMC+LPS (5 ug/ml)+YY-101 0.5 nM • 18. PBMC+LPS (5 ug/ml)+YY-101 0.05 nM • 19. PBMC+LPS (5 ug/ml)+YY-101 0.005 nM • 20. PBMC+LPS (5 ug/ml)+YDE-011 500 nM • 21. PBMC+LPS (5 ug/ml)+YDE-011 50 nM • 22. PBMC+LPS (5 ug/ml)+YDE-011 5 nM • 23. PBMC+LPS (5 ug/ml)+YDE-011 0.5 nM • 24. PBMC+LPS (5 ug/ml)+YDE-011 0.05 nM • 25. PBMC+LPS (5 ug/ml)+YDE-011 0.005 nM • 26. PBMC+LPS (5 ug/ml)+YDE-043 500 nM • 27. PBMC+LPS (5 ug/ml)+YDE-043 50 nM • 28. PBMC+LPS (5 ug/ml)+YDE-043 5 nM • 29. PBMC+LPS (5 ug/ml)+YDE-043 0.5 nM • 30. PBMC+LPS (5 ug/ml)+YDE-043 0.05 nM • 31. PBMC+LPS (5 ug/ml)+YDE-043 0.005 nM
Multiplex assay was used to measure 30 cytokines and chemokines. The 1:200 diluted cell supernatant and serial dilution of the standard were dispensed into a 96 well plate at 50 ul/well. Then, the pre-mixed cocktail of antibody-coated magnetic beads was dispensed at 50 ul/well and incubated at room temperature for 2 h in a horizontal orbital microplate shaker at 800±500 rpm. The beads were washed using a magnetic device to prevent loss. The biotin-antibody was dispensed in 50 ul of each well and incubated at room temperature for 1 h in a shaker at 800±500 rpm. After washing, streptavidin-PE was added at 50 ul/well and incubated at room temperature for 30 min in a shaker under the same conditions. Finally, after washing, wash buffer (100 ul/well) was added to the plate and incubated in a shaker for 2 min. The Luminex™ 200 setting were set according to the manufacturer's protocol. The data was calculated with a standard five-parameter logistic nonlinear regression analysis of the data (xPonent software 4.2, USA). Results were presented as concentration (ng/ml or pg/ml).

[1] = PBMC + LPS(5 ug/ml) + compound 5 nM, 24 h
[2] = PBMC + LPS(5 ug/ml) + compound 50 nM, 24 h
[3] = PBMC + LPS(5 ug/ml) + compound 500 nM, 24 h
[4] = PBMC + compound 0.05 uM, no LPS

With `CC(C)C[C@H](NC(=O)CNC(=O)[C@H](CC(=O)O)NC(=O)[C@H](CCC(N)=O)NC(=O)CNC(=O)[C@@H]1C[C@@H](O)CN1)C(=O)N[C@@H](C)C(=O)NCC(=O)N1CCC[C@H]1C(=O)N[C@@H](CCCCN)C(=O)O` [YY-101] (H-[Hyp]GQDGLAGPK-OH; N-terminus and C-terminus assumed) the “IL-2 Concentration, Mean” value (PBMC + LPS(5 ug/ml) + compound 0.5 nM, 24 h, LPS alone Mean 3988.7) was 2824.6 pg/mL, the “IL-2 Concentration, individual wells” value [1] was 2473.6 pg/mL and 2629.7 pg/mL and 2941.4 pg/mL and the “IL-2 MFI, individual wells” value [1] was 61.0 and 63.0 and 67.0. The “IL-2 MFI, Mean” value (PBMC + LPS(5 ug/ml) + compound 5 nM, 24 h, LPS alone Mean 80.5) was 63.7, the “IL-2 Concentration, Mean” value (PBMC + LPS(5 ug/ml) + compound 5 nM, 24 h, LPS alone Mean 3988.7) was 2681.6 pg/mL and the “IL-2 Concentration, individual wells” value [2] was 2473.6 pg/mL and 2707.7 pg/mL and 2863.5 pg/mL. The “IL-2 MFI, individual wells” value [2] was 61.0 and 64.0 and 66.0, the “IL-2 MFI, Mean” value (PBMC + LPS(5 ug/ml) + compound 50 nM, 24 h, LPS alone Mean 80.5) was 63.7 and the “IL-2 Concentration, Mean” value (PBMC + LPS(5 ug/ml) + compound 50 nM, 24 h, LPS alone Mean 3988.7) was 2681.6 pg/mL. The “IL-2 Concentration, individual wells” value [3] was 2707.7 pg/mL and 2863.5 pg/mL and 2551.7 pg/mL, the “IL-2 MFI, individual wells” value [3] was 64.0 and 66.0 and 62.0 and the “IL-2 MFI, Mean” value (PBMC + LPS(5 ug/ml) + compound 500 nM, 24 h, LPS alone Mean 80.5) was 64.0. For the same compound, the “IL-2 Concentration, Mean” value (PBMC + LPS(5 ug/ml) + compound 500 nM, 24 h, LPS alone Mean 3988.7) was 2707.6 pg/mL, the “IL-2 Concentration, individual wells” value (PBMC + compound 0.5 nM, no LPS) was 173.5 pg/mL and 337.0 pg/mL and the “IL-2 MFI, individual wells” value (PBMC + compound 0.5 nM, no LPS) was 32.0 and 34.0. The “IL-2 MFI, Mean” value (PBMC + compound 0.5 nM, no LPS, 0.5% DMSO Mean 30.7) was 33.0, the “IL-2 Concentration, Mean” value (PBMC + compound 0.5 nM, no LPS, 0.5% DMSO Mean 61.8) was 255.2 pg/mL and the “IL-2 Concentration, individual wells” value (PBMC + compound 5 nM, no LPS) was 173.5 pg/mL. For the same compound, the “IL-2 MFI, individual wells” value (PBMC + compound 5 nM, no LPS) was 32.0, the “IL-2 MFI, Mean” value (PBMC + compound 5 nM, no LPS, 0.5% DMSO Mean 30.7) was 32.0 and the “IL-2 Concentration, Mean” value (PBMC + compound 5 nM, no LPS, 0.5% DMSO Mean 61.8) was 173.5 pg/mL. For the same compound, the “IL-2 Concentration, individual wells” value [4] was 659.4 pg/mL and 337.0 pg/mL, the “IL-2 MFI, individual wells” value [4] was 38.0 and 34.0 and the “IL-2 MFI, Mean” value (PBMC + compound 0.05 uM, no LPS, 0.5% DMSO Mean 30.7) was 36.0. The “IL-2 Concentration, Mean” value (PBMC + compound 0.05 uM, no LPS, 0.5% DMSO Mean 61.8) was 498.2 pg/mL, the “IL-2 Concentration, individual wells” value (PBMC + compound 50 nM, no LPS) was 48.8 pg/mL and 173.5 pg/mL and the “IL-2 MFI, individual wells” value (PBMC + compound 50 nM, no LPS) was 30.5 and 32.0. The “IL-2 MFI, Mean” value (PBMC + compound 50 nM, no LPS, 0.5% DMSO Mean 30.7) was 31.3, the “IL-2 Concentration, Mean” value (PBMC + compound 50 nM, no LPS, 0.5% DMSO Mean 61.8) was 111.2 pg/mL and the “IL-2 Concentration, individual wells” value (PBMC + compound 500 nM, no LPS) was 132.3 pg/mL and 255.5 pg/mL. For the same compound, the “IL-2 MFI, individual wells” value (PBMC + compound 500 nM, no LPS) was 31.5 and 33.0, the “IL-2 MFI, Mean” value (PBMC + compound 500 nM, no LPS, 0.5% DMSO Mean 30.7) was 32.3 and the “IL-2 Concentration, Mean” value (PBMC + compound 500 nM, no LPS, 0.5% DMSO Mean 61.8) was 193.9 pg/mL. For the same compound, the “LPS-induced IL-2 (in words)” value (at as low as 5 μM, LPS 5 ug/mL 24 hrs) was “significantly reduced”.
